Laboratory results: publication PMC6148235, “A structural investigation of NRZ mediated apoptosis regulation in zebrafish” (Cell Death & Disease, 2018)
Residues, ends and D or L forms follow the SMILES beside them. No end group written: not given here.

T1: NRZ D79A (Danio rerio, UniProt Q8UWD5, D79A)
T1 sequence (Q8UWD5 1-148 D79A): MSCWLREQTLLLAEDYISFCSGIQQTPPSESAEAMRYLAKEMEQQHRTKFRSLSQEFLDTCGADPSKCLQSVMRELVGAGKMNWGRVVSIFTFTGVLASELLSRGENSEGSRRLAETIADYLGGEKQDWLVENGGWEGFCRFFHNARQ

T2: NRZ R86A (Danio rerio, UniProt Q8UWD5, R86A)
T2 sequence (Q8UWD5 1-148 R86A): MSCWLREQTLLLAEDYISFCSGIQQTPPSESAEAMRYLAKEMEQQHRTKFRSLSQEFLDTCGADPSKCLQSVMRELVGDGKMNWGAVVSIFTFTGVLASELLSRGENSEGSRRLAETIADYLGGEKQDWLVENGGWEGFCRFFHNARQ

T3: wt-NRZ (Danio rerio, UniProt Q8UWD5)
T3 sequence (Q8UWD5 1-148): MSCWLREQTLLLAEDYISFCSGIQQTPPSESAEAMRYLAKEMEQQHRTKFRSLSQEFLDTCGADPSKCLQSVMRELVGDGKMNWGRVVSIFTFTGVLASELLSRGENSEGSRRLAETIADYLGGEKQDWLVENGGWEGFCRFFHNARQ


Tests used:
NRZ D79A = target: T1, NRZ D79A; assay: ITC affinity measurement of NRZ: BH3 motif interactions (mutant D79A); type: binding, zebrafish (Danio rerio); design: key to NRZ D79A KD: NB: no binding; settings: MicroCal iTC200, 25 °C, 25 mM HEPES pH 7.5, 150 mM NaCl, 2 mM BME, protein 30 μM, peptide 300 μM, 19 injections of 2.0 μl, means of three replicates with standard error
Description: (§1) NRZ mutants D79A and R86A were codon-optimized and synthesized (Genscript) and subsequently cloned into the pGEX-6P-3 vector (Invitrogen). Expression and purification were performed using the same protocol as for wild-type NRZ.
(§2) Binding affinities were measured by isothermal titration calorimetry (ITC) employing a MicroCal iTC200 system (GE Healthcare) at 25 °C using wt-NRZ, and NRZ mutants D79A and R86A in 25 mM HEPES, pH 7.5, 150 mM NaCl, 2 mM BME at a final concentration of 30 μM as previously described. BH3 motif peptide ligands were used at a concentration of 300 μM and titrated using 19 injections of 2.0 μl of ligand. All affinity measurements were performed in triplicate. Protein concentrations were measured using a Nanodrop UV spectrophotometer (Thermo Scientific, Scoresbury, Australia) at a wavelength of 280 nm. Peptide concentrations were calculated based on the dry peptide weight after synthesis. The zebrafish BH3-motif peptides used were commercially synthesized and were purified to a final purity of 95% (GenScript, Piscataway, New Jersey, US). zBim: […] (UniProt accession code B2KKY9, residues 117–142), zPuma: […] (accession code Q0GKC9, residues 123–148), zBik: […] (accession code Q5RGV6, residues 30–55), zBax: […] (accession code Q9I9N4, residues 52–79), zBid: […] (accession code Q0GKC5, residues 85–112), zBad: […] (accession code A7MCM4, 88–113 residues), zBmf: […] (accession code Q0GKC7, residues 89–114), zNoxa: […] (accession code Q0GKC8, residues 5–30), zBok: […] (accession code Q7T381, residues 60–85), zBeclin: […] (accession code F1RCP1, residues 102–127), zBcl-wav: […] (accession code D2Y5Q2, residues 42–67).

NRZ R86A = target: T2, NRZ R86A; assay: ITC affinity measurement of NRZ: BH3 motif interactions (mutant R86A); type: binding, zebrafish (Danio rerio); design: key to NRZ R86A KD: NB: no binding; settings: MicroCal iTC200, 25 °C, 25 mM HEPES pH 7.5, 150 mM NaCl, 2 mM BME, protein 30 μM, peptide 300 μM, 19 injections of 2.0 μl, means of three replicates with standard error
Description: as §1, §2

wt-NRZ = target: T3, wt-NRZ; assay: ITC affinity measurement of NRZ: BH3 motif interactions (wild type); type: binding, zebrafish (Danio rerio); settings: MicroCal iTC200, 25 °C, 25 mM HEPES pH 7.5, 150 mM NaCl, 2 mM BME, NRZ 30 μM, peptide 300 μM, 19 injections of 2.0 μl, means of three replicates with standard error
Description: as §2

[1] = target: NRZ D79A (zebrafish (Danio rerio)) (UniProt Q8UWD5); assay: ITC; MicroCal iTC200, 25 °C; NRZ (wt, D79A or R86A) at 30 μM in 25 mM HEPES pH 7.5, 150 mM NaCl, 2 mM BME; BH3 peptide at 300 μM titrated in 19 injections of 2.0 μl; triplicate
[2] = target: NRZ R86A (zebrafish (Danio rerio)) (UniProt Q8UWD5); assay: as above
[3] = target: NRZ (zebrafish pro-survival Bcl-2 protein), lacking the 28 C-terminal residues (zebrafish (Danio rerio)); assay: as above

Molecule | Kd (NRZ D79A) | Kd (NRZ R86A) | Kd [1] | Kd [2] | also measured
ALWAAKKYGQQLRRMSDEFDKGQMKR [Bad] | 3330 ± 41 nM | 4800 ± 88 nM |  |  | 
EQTAVVECAQQLRNIGDLLNWKYKLL [Noxa] | 335 ± 31 nM | 510 ± 41 nM |  |  | 
EARAAREMAAELIRIADLLEQSVLSQAA [Bid] | 220 ± 16 nM |  |  |  | 
NMRVTQTIGRQLAQIGDEMDNKWRQE [Bik] | 14 ± 3 nM | 17 ± 3 nM |  |  | 
CC[C@H](C)[C@H](NC(=O)[C@H](CCC(N)=O)NC(=O)[C@H](CCC(N)=O)NC(=O)[C@H](CC(C)C)NC(=O)[C@H](CS)NC(=O)[C@H](CCC(N)=O)NC(=O)[C@H](C)NC(=O)[C@H](CC(C)C)NC(=O)[C@H](CCCNC(=N)N)NC(=O)[C@H](CCCCN)NC(=O)[C@H](Cc1c[nH]cn1)NC(=O)[C@H](CO)NC(=O)[C@@H]1CCCN1C(=O)[C@H](CC(=O)O)NC(=O)[C@H](CS)NC(=O)[C@H](CC(C)C)NC(=O)[C@@H](N)CCC(=O)O)C(=O)NCC(=O)N[C@@H](CC(=O)O)C(=O)N[C@@H](CCC(=O)O)C(=O)N[C@@H](CC(C)C)C(=O)N[C@@H](CC(=O)O)C(=O)NCC(=O)N[C@@H](CC(N)=O)C(=O)N[C@@H](C)C(=O)N[C@@H](CCC(N)=O)C(=O)N[C@@H](CC(C)C)C(=O)N[C@@H](CCC(N)=O)C(=O)O [Bax] (H-ELCDPSHKRLAQCLQQIGDELDGNAQLQ-OH) | 264 ± 42 nM | 4600 ± 440 nM |  |  | 
AQSVETLIGQKLQLIGDQFYQEHIMH [Bmf] |  |  |  |  | NRZ D79A KD (NRZ D79A): NB; WT NRZ KD (wt-NRZ): no detectable affinity and no affinity and NB; NRZ R86A KD (NRZ R86A): NB
DGGTMENLSRRLKVTSNLFDIMSGQT [Beclin] |  |  |  |  | NRZ D79A KD (NRZ D79A): NB; WT NRZ KD (wt-NRZ): no detectable affinity and NB; WT NRZ KD (wt-NRZ; listed as Beclin-1): does not bind; NRZ R86A KD (NRZ R86A): NB
EEQAVERVAVQLRTIGDEMNAVFLQR [Puma] | 117 ± 5 nM | 2770 ± 162 nM |  |  | 
LCPAPSRASAALRHAGDELLIRFPIF [Bcl-wav] |  |  |  |  | NRZ D79A KD (NRZ D79A): ablated; Kd (wt-NRZ): 3570 ± 162 nM; NRZ R86A KD (NRZ R86A): ablated
ALPPEMVVARELRRIGDEFNRLYCEA [Bim] | 13 ± 4 nM | 168 ± 8 nM |  |  | 
ELCDPSHKRLAQCLQQIGDELDGNAQLQ [zBax BH3 motif peptide] |  |  | 264 nM | 4600 nM | 
ALPPEMVVARELRRIGDEFNRLYCEA [zBim BH3 motif peptide] |  |  | 13 nM | 168 nM | Kd [3]: 41 nM
EEQAVERVAVQLRTIGDEMNAVFLQR [zPuma BH3 motif peptide] |  |  | 117 nM | 2770 nM | 
EARAAREMAAELIRIADLLEQSVLSQAA [zBid BH3 motif peptide] |  |  | 220 nM |  | Kd [3]: 409 nM
EQTAVVECAQQLRNIGDLLNWKYKLL [zNoxa BH3 motif peptide] |  |  | 335 nM | 510 nM | 
NMRVTQTIGRQLAQIGDEMDNKWRQE [zBik BH3 motif peptide] |  |  | 14 nM | 17 nM | Kd [3]: 12 nM
LCPAPSRASAALRHAGDELLIRFPIF [zBcl-wav BH3 motif peptide] |  |  |  |  | Kd [3]: 3570 nM
ALWAAKKYGQQLRRMSDEFDKGQMKR [zBad BH3 motif peptide] |  |  | 3330 nM | 4800 nM | 
